Reference: PMC6272637, “Hepatoprotective Triterpene Saponins from the Roots of Glycyrrhiza inflata” (Molecules, 2015)
“Also recorded” adds a separate entry of the source. Marks after values point to notes of the source that are not given here.

Legend:
[1] = tested on: primary rat hepatocytes injured by D-GalN; test: Hepatoprotective activity in primary rat hepatocytes injured by D-GalN (AST, LDH levels); assay type: cell-based; conditions: for AST / LDH: primary rat hepatocytes, 2 mM D-GalN, mean ± SD, n = 3; for AST: model 17.1 ± 2.4, control 6.9 ± 1.7; for LDH: model 253.5 ± 13.5, control 157.4 ± 11.7; for hepatoprotective activity (result in words): primary rat hepatocytes injured by D-GalN, compared to model group or between compounds
Method: All the separated compounds were assessed for their hepatoprotective activities against the increase of AST and LDH levels in primary rat hepatocytes injured by D-GalN. The maximum nontoxic concentrations of tested compounds on primary rat hepatocytes were in the range of 120–240 μM. […] (Table 2).
Isolated rat hepatocytes were prepared from male Wistar rats by a collagenase perfusion technique as described previously. The D-GalN concentration used for cell culture treatment was previously determined according to a modification of the method of Morikawa et al.. The cultured cells in logarithmic growth phase were made into a single-cell suspension and seeded in 96-well plates (1 × 10^4 cells/well) in the DMEM/F 12 with 2% FBS complete medium for 24 h at 37 °C. Then, the hepatocytes were exposed to 2 mM D-GalN for 2 h to induce hepatotoxocity. The medium with silibin meglumine (as positive drug, purity 95.6%, Hunan Xieli Pharmaceutical Co., Ltd., Zhuzhou, China) and different concentrations of test compounds was mixed in cell medium (final test compounds concentration were 30 μM, 60 μM and 120 μM, respectively), and incubated for 24 h. The obtained reacted supernatant was directly used to detect ALT and AST levels. The control group was a set of cells maintained in culture medium, while the model group was a set of cells maintained in culture medium and treated only with D-GalN. All data are expressed as the mean ± SD of at least three independent experiments as indicated. The test for the paired samples was used to determine statistical difference between parameters. These differences were considered significant for p < 0.05 or 0.01.

phospholipase A2 (PLA2) = test: Assay for inhibition against PLA2; assay type: biochemical; conditions: PLA2 enzyme 5 μg/mL, pH 8.2, 40 °C, 30 min, OD 495 nm; three repeats
Method: As a regulator associated with the stability of the liver cell membrane, phospholipase A2 (PLA2) is a promising target for hepatoprotective drug development.
The PLA2 inhibitory assays of compounds 1–11 and the positive drug diethylenetriaminepentaacetic acid (Purchased from Aladdin, Los Angeles, CA, USA, purity > 98.0%) were carried out according to the literature. First of all, each tube was added with 1 mL fresh substrate buffer solution (pH = 8.2). After that, 50 μL tested compounds at various concentrations were placed at reaction tube and blank tube, respectively. As for control tube, 50 μL deionized water was instead. Then each tube incubated at 40 °C for 10 minutes. The reaction tube and blank tube were followed by the treatment with PLA2 enzyme (5 μL) at the concentration of 5 μg/mL. Before put them into the incubator at the temperature of 40 °C to react 30 minutes, the content of the tube should be fully blending. The optical density value of each tube was then read in an ELISA plate reader using a wavelength of 495 nm. The IC50 values were calculated from concentration-response curves by means of the GraphPad Prism 5.0 Software (San Diego, CA, USA). Each experiment was repeated three times to get the mean values.

Q: `CNCC(O)C(O)C(O)C(O)CO.COc1cc(C2Oc3cc(C4Oc5cc(O)cc(O)c5C(=O)C4O)ccc3OC2CO)ccc1O` (stereo not drawn) [Silibinin Meglumine, reference compound] was tested. Which AST ([1]; 50 μM (positive drug)) did it give?
A: 10.3 ± 2.2 ^d U·L^−1

Q: What about the LDH ([1]; 50 μM (positive drug)) of the same compound?
A: 219.1 ± 10.9 ^d U·L^−1

Q: `CC(=O)OC1CC(C)(C(=O)O)CC2C3=CC(=O)C4C5(C)CCC(OC6OC(C(=O)O)C(O)C(O)C6OC6OC(C(=O)O)C(O)C(O)C6O)C(C)(C)C5CCC4(C)C3(C)CCC12C` (stereo not drawn) [Compound 6, 22β-acetoxyglycyrrhizin] was tested. Which IC50 (phospholipase A2 (PLA2)) did it give?
A: 27.1 ± 0.9 µM

Q: What about the AST ([1]; 30 μM compound) of the same compound?
A: 16.5 ± 2.2 U·L^−1

Q: What about the LDH ([1]; 30 μM compound) of the same compound?
A: 242.8 ± 15.2 U·L^−1

Q: What about the AST ([1]; 60 μM compound) of the same compound?
A: 14.6 ± 3.0 U·L^−1

Q: And the LDH ([1]; 60 μM compound)?
A: 228.7 ± 14.0 ^c U·L^−1

Q: What about the AST ([1]; 120 μM compound) of the same compound?
A: 13.2 ± 2.7 ^c U·L^−1

Q: What about the LDH ([1]; 120 μM compound) of the same compound?
A: 221.7 ± 19.5 ^d U·L^−1

Q: And the “hepatoprotective activity (result in words)” value (from here on “hepatoprotective activity”) [1]?
A: notably lowered AST; also recorded: significant hepatoprotective activities

Q: What does the source list for `CC12CCC3(C)C(=CC(=O)C4C5(C)CCC(OC6OC(C(=O)O)C(O)C(O)C6OC6OC(C(=O)O)C(O)C(O)C6O)C(C)(C)C5CCC43C)C1CC(C)(C(=O)O)C(O)C2` (stereo not drawn) [Compound 2, macedonoside A]?
A: IC50 (phospholipase A2 (PLA2)): 6.9 ± 0.5 µM; AST ([1]; 30 μM compound): 14.6 ± 3.1 U·L^−1; LDH ([1]; 30 μM compound): 231.0 ± 18.3 ^c U·L^−1; AST ([1]; 60 μM compound): 13.1 ± 2.1 ^c U·L^−1; LDH ([1]; 60 μM compound): 213.7 ± 19.6 ^d U·L^−1; AST ([1]; 120 μM compound): 11.2 ± 1.9 ^d U·L^−1; LDH ([1]; 120 μM compound): 215.9 ± 8.2 ^d U·L^−1; hepatoprotective activity (result in words) [1]: notably lowered AST; also recorded: significant hepatoprotective activities

Q: Which IC50 (phospholipase A2 (PLA2)) does the source give for `CC1(C(=O)OC2OC(CO)C(O)C(O)C2O)CCC2(C)CCC3(C)C(=CC(=O)C4C5(C)CCC(OC6OC(C(=O)O)C(O)C(O)C6OC6OC(C(=O)O)C(O)C(O)C6O)C(C)(CO)C5CCC43C)C2C1` (stereo not drawn) [Compound 10, licorice-saponin A3] here?
A: > 50 µM

Q: `CC1(C(=O)O)CCC2(C)CCC3(C)C(=CC(=O)C4C5(C)CCC(OC6OC(C(=O)O)C(O)C(O)C6OC6OC(C(=O)O)C(O)C(O)C6O)C(C)(CO)C5CCC43C)C2C1` [Compound 3, 3β-O-[β-D-glucuronpyranosyl-(1→2)-β-D-glucuron-pyranosyl]-24-hydroxy-18α-glycyrrhetic acid] was tested. Which IC50 (phospholipase A2 (PLA2)) did it give?
A: 3.6 ± 0.3 µM

Q: What about the AST ([1]; 30 μM compound) of the same compound?
A: 13.3 ± 2.9 ^c U·L^−1

Q: What about the LDH ([1]; 30 μM compound) of the same compound?
A: 224.6 ± 21.4 ^c U·L^−1

Q: And the AST ([1]; 60 μM compound)?
A: 12.9 ± 3.2 ^d U·L^−1

Q: What about the LDH ([1]; 60 μM compound) of the same compound?
A: 208.6 ± 16.0 ^d U·L^−1

Q: What about the AST ([1]; 120 μM compound) of the same compound?
A: 10.8 ± 2.8 ^d U·L^−1

Q: What about the LDH ([1]; 120 μM compound) of the same compound?
A: 200.7 ± 15.1 ^d U·L^−1

Q: What about the “hepatoprotective activity” value [1] of the same compound?
A: notably lowered AST; also recorded: higher activity than compound 4; also recorded: significant hepatoprotective activities

Q: What does the source list for `CC1(C(=O)O)CCC2(C)CCC3(C)C(=CC(=O)C4C5(C)CCC(OC6OC(C(=O)O)C(O)C(O)C6OC6OC(C(=O)O)C(O)C(O)C6O)C(C)(CO)C5CCC43C)C2C1` (stereo not drawn) [Compound 4, licorice-saponin G2]?
A: IC50 (phospholipase A2 (PLA2)): 16.9 ± 0.3 µM; AST ([1]; 30 μM compound): 14.8 ± 2.9 U·L^−1; LDH ([1]; 30 μM compound): 237.2 ± 16.4 U·L^−1; AST ([1]; 60 μM compound): 13.7 ± 2.6 ^c U·L^−1; LDH ([1]; 60 μM compound): 232.7 ± 25.7 U·L^−1; AST ([1]; 120 μM compound): 12.6 ± 2.8 ^c U·L^−1; LDH ([1]; 120 μM compound): 224.9 ± 25.2 ^c U·L^−1; hepatoprotective activity (result in words) [1]: notably lowered AST; also recorded: significant hepatoprotective activities

Q: With `CC12CCC(CO)(C(=O)O)CC1C1=CC(=O)C3C4(C)CCC(OC5OC(C(=O)O)C(O)C(O)C5OC5OC(C(=O)O)C(O)C(O)C5O)C(C)(C)C4CCC3(C)C1(C)CC2` [Compound 1, 3β-O-[β-D-glucuronopyranosyl-(1→2)-β-D-glucuronopyranosyl]-29-hydroxyglycyrrhetic acid] as the compound, how does the IC50 (phospholipase A2 (PLA2)) read?
A: > 50 µM

Q: With `CC(=O)OC1CC(C)(C=O)CC2C3=CC(=O)C4C5(C)CCC(OC6OC(C(=O)O)C(O)C(O)C6OC6OC(C(=O)O)C(O)C(O)C6O)C(C)(C)C5CCC4(C)C3(C)CCC12C` (stereo not drawn) [Compound 9, 22β-acetoxyglycyrrhaldehyde] as the compound, how does the IC50 (phospholipase A2 (PLA2)) read?
A: > 50 µM

Q: For `O=C(O)CN(CCN(CC(=O)O)CC(=O)O)CCN(CC(=O)O)CC(=O)O` [Diethylenetriaminepentaacetic acid, reference compound], which IC50 (phospholipase A2 (PLA2)) is on record?
A: 1.8 ± 0.1 µM

Q: `CC12CC(OC1=O)C1(C)CCC3(C)C(=CC(=O)C4C5(C)CCC(OC6OC(C(=O)O)C(O)C(O)C6OC6OC(C(=O)O)C(O)C(O)C6O)C(C)(CO)C5CCC43C)C1C2` (stereo not drawn) [Compound 8, 24-hydroxylicorice-saponin E2] was tested. Which IC50 (phospholipase A2 (PLA2)) did it give?
A: > 50 µM

Q: How did the IC50 (phospholipase A2 (PLA2)) turn out when `CC1(C)[C@@H](O[C@H]2O[C@H](C(=O)O)[C@@H](O)[C@H](O)[C@H]2O[C@@H]2O[C@H](C(=O)O)[C@@H](O)[C@H](O)[C@H]2O)CC[C@]2(C)[C@H]3C(=O)C=C4[C@@H]5C[C@@](C)(C(=O)O)CC[C@]5(C)CC[C@@]4(C)[C@]3(C)CC[C@@H]12` [Compound 11, glycyrrhizin] was run?
A: 9.3 ± 0.8 µM

Q: And the AST ([1]; 30 μM compound)?
A: 14.1 ± 2.1 ^c U·L^−1

Q: What about the LDH ([1]; 30 μM compound) of the same compound?
A: 236.3 ± 9.4 ^c U·L^−1

Q: What about the AST ([1]; 60 μM compound) of the same compound?
A: 13.0 ± 2.2 ^c U·L^−1

Q: What about the LDH ([1]; 60 μM compound) of the same compound?
A: 219.1 ± 19.3 ^d U·L^−1

Q: What about the AST ([1]; 120 μM compound) of the same compound?
A: 11.6 ± 1.8 ^d U·L^−1

Q: What about the LDH ([1]; 120 μM compound) of the same compound?
A: 207.8 ± 21.9 ^d U·L^−1

Q: And the “hepatoprotective activity” value [1]?
A: notably lowered AST; also recorded: stronger activity than 1; also recorded: significant hepatoprotective activities

Q: How did the IC50 (phospholipase A2 (PLA2)) turn out when `CC1(C)C(OC2OC(C(=O)O)C(O)C(O)C2OC2OC(C(=O)O)C(O)C(O)C2O)CCC2(C)C1CCC1(C)C2C(=O)C=C2C3CC4(C(=O)O)CC(OC4=O)C3(C)CCC21C` (stereo not drawn) [Compound 7, uralsaponin D] was run?
A: 32.2 ± 0.5 µM

Q: And the “hepatoprotective activity” value [1]?
A: significantly weaker hepatoprotective activities than the compound 2 and 11

Q: Which IC50 (phospholipase A2 (PLA2)) does the source give for `CC12CC(OC1=O)C1(C)CCC3(C)C(=CC(=O)C4C5(C)CCC(OC6OC(C(=O)O)C(O)C(O)C6OC6OC(C(=O)O)C(O)C(O)C6O)C(C)(C)C5CCC43C)C1C2` (stereo not drawn) [Compound 5, licorice-saponin E2] here?
A: > 50 µM

Q: What about the “hepatoprotective activity” value [1] of the same compound?
A: significantly weaker hepatoprotective activities than the compound 2 and 11
